Measurements published in patent US20080234262A1 (Wyeth, priority 2007, published 2008).

Tests used:
[1] = tested on: prostate line LNCap; assay: In vitro cell culture growth assay (MTS), LNCap; type: cell-based, human; details: LNCap cells, three days after drug treatment
[2] = tested on: breast line MDA468; assay: In vitro cell culture growth assay (MTS), MDA468; type: cell-based, human; details: MDA468 cells, three days after drug treatment
In short: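 Cells were plated and, one day later, exposed to inhibitors for three days; viable cell density was then measured by metabolic conversion of MTS dye, read as absorbance at 490 nm. Growth is expressed as percent of vehicle-treated control cells on the same plate.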

[3] = molecular target: PI3K (Homo sapiens, UniProt P42336); assay: Fluorescence polarization assay for PI3K; type: biochemical; details: PI3Kα; read-out: PI3Kα IC50;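 note: PI3K kinase reaction on PIP2 with ATP, 30-60 min, product sensed by GST-GRP with red probe in fluorescence polarization (mP), controls without enzyme and at zero time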
Sequence of PI3K (P42336 whole entry): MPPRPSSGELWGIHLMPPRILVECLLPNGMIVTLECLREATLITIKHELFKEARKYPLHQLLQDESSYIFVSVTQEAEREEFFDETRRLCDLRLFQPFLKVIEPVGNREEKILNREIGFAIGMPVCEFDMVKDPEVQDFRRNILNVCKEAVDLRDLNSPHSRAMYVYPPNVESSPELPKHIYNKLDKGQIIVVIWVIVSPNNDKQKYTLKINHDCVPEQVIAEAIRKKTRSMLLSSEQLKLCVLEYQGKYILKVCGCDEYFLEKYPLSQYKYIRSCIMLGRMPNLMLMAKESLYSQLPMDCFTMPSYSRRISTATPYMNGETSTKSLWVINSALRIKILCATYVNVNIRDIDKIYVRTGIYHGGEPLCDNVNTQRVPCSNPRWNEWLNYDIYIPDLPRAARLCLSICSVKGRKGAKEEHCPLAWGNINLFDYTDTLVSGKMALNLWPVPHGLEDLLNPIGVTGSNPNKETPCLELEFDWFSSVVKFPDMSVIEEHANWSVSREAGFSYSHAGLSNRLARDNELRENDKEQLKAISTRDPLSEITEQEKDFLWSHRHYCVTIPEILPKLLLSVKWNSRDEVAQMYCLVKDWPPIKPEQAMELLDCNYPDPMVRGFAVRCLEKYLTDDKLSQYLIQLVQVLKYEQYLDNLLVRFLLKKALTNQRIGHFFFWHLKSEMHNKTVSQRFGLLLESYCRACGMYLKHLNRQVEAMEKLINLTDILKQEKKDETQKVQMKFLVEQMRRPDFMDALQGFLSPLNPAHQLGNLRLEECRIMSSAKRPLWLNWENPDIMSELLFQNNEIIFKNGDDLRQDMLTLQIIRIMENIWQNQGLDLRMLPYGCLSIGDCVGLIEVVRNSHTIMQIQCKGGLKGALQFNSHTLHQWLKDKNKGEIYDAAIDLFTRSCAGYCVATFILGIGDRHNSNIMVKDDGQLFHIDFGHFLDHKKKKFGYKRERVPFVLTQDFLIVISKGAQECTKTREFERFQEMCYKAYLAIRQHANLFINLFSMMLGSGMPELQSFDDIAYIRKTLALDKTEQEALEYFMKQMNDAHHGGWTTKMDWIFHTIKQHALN
Sequence of PI3K (P27986 whole entry partner): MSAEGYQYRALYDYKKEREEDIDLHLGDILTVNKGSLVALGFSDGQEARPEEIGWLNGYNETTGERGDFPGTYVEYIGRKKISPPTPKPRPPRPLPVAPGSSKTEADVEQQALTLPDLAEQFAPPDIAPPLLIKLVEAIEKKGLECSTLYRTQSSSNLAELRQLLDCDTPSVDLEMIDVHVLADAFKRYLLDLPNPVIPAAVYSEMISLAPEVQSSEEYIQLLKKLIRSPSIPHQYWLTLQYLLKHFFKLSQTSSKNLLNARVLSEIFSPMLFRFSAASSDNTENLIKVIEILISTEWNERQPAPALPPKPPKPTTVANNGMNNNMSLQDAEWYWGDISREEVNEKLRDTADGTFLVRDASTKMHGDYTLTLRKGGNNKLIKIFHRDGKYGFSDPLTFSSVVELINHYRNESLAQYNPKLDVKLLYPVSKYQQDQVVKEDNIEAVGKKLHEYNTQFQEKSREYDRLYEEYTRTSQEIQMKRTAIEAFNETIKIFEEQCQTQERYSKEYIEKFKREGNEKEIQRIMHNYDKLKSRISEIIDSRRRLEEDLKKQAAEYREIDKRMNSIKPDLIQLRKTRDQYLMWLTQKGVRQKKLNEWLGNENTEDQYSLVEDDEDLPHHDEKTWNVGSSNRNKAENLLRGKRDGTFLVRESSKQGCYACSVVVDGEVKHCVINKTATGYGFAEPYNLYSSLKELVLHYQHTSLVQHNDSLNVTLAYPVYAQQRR

Row | SMILES | IC50 ([1]; Homo sapiens, LNCaP, 72 h) | IC50 ([2]; Homo sapiens, 72 h) | IC50 [3] | IC50 [1] | IC50 [2]
1 | CCOC(=O)Nc1ccc(-c2nc(N3CCOCC3)c3cnn(C4CCN(C(=O)OC)CC4)c3n2)cc1 [Compound 900, methyl 4-(6-{4-[(ethoxycarbonyl)amino]phenyl}-4-morpholin-4-yl-1H-pyrazolo[3,4-d]pyrimidin-1-yl)piperidine-1-carboxylate] | 0.76 µM | > 60 µM | 6.72 µM |  | 
2 | O=C(Nc1ccc(-c2nc(N3CCOCC3)c3cnn(C4CCN(C(=O)c5cccnc5)CC4)c3n2)cc1)Nc1cccnc1 [Compound 547, 1-(4-{4-morpholin-4-yl-1-[1-(pyridin-3-ylcarbonyl)piperidin-4-yl]-1H-pyrazolo[3,4-d]pyrimidin-6-yl}phenyl)-3-pyridin-3-ylurea] | 0.2 µM | 0.027 µM | 0.032 µM |  | 
3 | CCCOC(=O)N1CCC(n2ncc3c(N4CCOCC4)nc(-c4ccc(NC(=O)NC5CC5)cc4)nc32)CC1 [Compound 856, propyl 4-(6-{4-[(cyclopropylcarbamoyl)amino]phenyl}-4-morpholin-4-yl-1H-pyrazolo[3,4-d]pyrimidin-1-yl)piperidine-1-carboxylate] | 0.09 µM | 0.51 µM | 0.77 µM |  | 
4 | C#CCNC(=O)Nc1ccc(-c2nc(N3CCOCC3)c3cnn(C4CCN(Cc5ccccc5)CC4)c3n2)cc1 [Compound 557, 1-{4-[1-(1-benzylpiperidin-4-yl)-4-morpholin-4-yl-1H-pyrazolo[3,4-d]pyrimidin-6-yl]phenyl}-3-prop-2-yn-1-ylurea] | 0.4 µM | 3.9 µM | 0.173 µM |  | 
5 | NC(=O)Nc1ccc(-c2nc(N3CCOCC3)c3cnn(C4CCN(Cc5cccnc5)CC4)c3n2)cc1 [Compound 558, 1-(4-{4-morpholin-4-yl-1-[1-(pyridin-3-ylmethyl)piperidin-4-yl]-1H-pyrazolo[3,4-d]pyrimidin-6-yl}phenyl)urea] | 0.2 µM | 0.2 µM | 0.082 µM |  | 
6 | COC(=O)Nc1ccc(-c2nc(N3CCOCC3)c3cn[nH]c3n2)cc1 [Compound 525, methyl [4-(4-morpholin-4-yl-1H-pyrazolo[3,4-d]pyrimidin-6-yl)phenyl]carbamate] | 3 µM | 12 µM | 0.612 µM |  | 
7 | O=C(NCC(F)(F)F)Nc1ccc(-c2nc(N3CCOCC3)c3cnn(C4CCN(Cc5ccccc5)CC4)c3n2)cc1 [Compound 535, 1-{4-[1-(1-benzylpiperidin-4-yl)-4-morpholin-4-yl-1H-pyrazolo[3,4-d]pyrimidin-6-yl]phenyl}-3-(2,2,2-trifluoroethyl)urea] | 0.32 µM | 1.3 µM | 0.59 µM |  | 
8 | CNC(=O)Nc1ccc(-c2nc(N3CCOCC3)c3cnn(C4CCNCC4)c3n2)cc1 [Compound 584, 1-methyl-3-[4-(4-morpholin-4-yl-1-piperidin-4-yl-1H-pyrazolo[3,4-d]pyrimidin-6-yl)phenyl]urea] | 0.5 µM | 1.3 µM | 0.022 µM |  | 
9 | CNC(=O)Nc1ccc(-c2nc(N3CCOCC3)c3cnn(C4CCN(Cc5ccc(OC)c(O)c5)CC4)c3n2)cc1 [Example 398, 1-(4-{1-[1-(3-hydroxy-4-methoxybenzyl)piperidin-4-yl]-4-morpholin-4-yl-1H-pyrazolo[3,4-d]pyrimidin-6-yl}phenyl)-3-methylurea] | 0.15 µM | 0.6 µM | 0.057 µM |  | 
10 | COC(=O)N1CCC(n2ncc3c(N4CCOCC4)nc(-c4ccc(NC(=O)Nc5ccc(F)nc5)cc4)nc32)CC1 [Compound 862, methyl 4-[6-(4-{[(6-fluoropyridin-3-yl)carbamoyl]amino}phenyl)-4-morpholin-4-yl-1H-pyrazolo[3,4-d]pyrimidin-1-yl]piperidine-1-carboxylate] | < 0.023 µM | < 0.0885 µM | 0.107 µM |  | 
11 | C[C@H]1COCCN1c1nc(-c2cccc(O)c2)nc2c1cnn2-c1ccccc1 [Compound 726, 3-{4-[(3S)-3-methylmorpholin-4-yl]-1-phenyl-1H-pyrazolo[3,4-d]pyrimidin-6-yl}phenol] | 2.7 µM | 8 µM | 0.098 µM |  | 
12 | O=C(Nc1ccc(-c2nc(N3CCOCC3)c3cnn(C4CCN(CC(F)(F)F)CC4)c3n2)cc1)Nc1cccnc1 [Compound 787, 1-(4-{4-morpholin-4-yl-1-[1-(2,2,2-trifluoroethyl)piperidin-4-yl]-1H-pyrazolo[3,4-d]pyrimidin-6-yl}phenyl)-3-pyridin-3-ylurea] | 0.027 µM | 0.14 µM | 0.04 µM |  | 
13 | O=C(Nc1ccc(-c2nc(N3CCOCC3)c3cn[nH]c3n2)cc1)c1cccnc1 [Compound 524, N-[4-(4-morpholin-4-yl-1H-pyrazolo[3,4-d]pyrimidin-6-yl)phenyl]nicotinamide] | 7.2 µM | 60 µM | 1.17 µM |  | 
14 | CNC(=O)Nc1ccc(-c2nc(N3CCOCC3)c3cnn(C4CCN(C(=O)c5cccnc5C)CC4)c3n2)cc1 [Compound 573, 1-methyl-3-[4-(1-{1-[(2-methylpyridin-3-yl)carbonyl]piperidin-4-yl}-4-morpholin-4-yl-1H-pyrazolo[3,4-d]pyrimidin-6-yl)phenyl]urea] | 0.25 µM | 0.9 µM | 0.216 µM |  | 
15 | O=C(c1ccccn1)N1CCC(n2ncc3c(N4CCOCC4)nc(-c4ccc5[nH]ccc5c4)nc32)CC1 [Example 51] | 0.34 µM | 1.7 µM | 1.1 µM |  | 
16 | O=C(CCl)N1CCC(n2ncc3c(N4CCOCC4)nc(-c4ccc5[nH]ccc5c4)nc32)CC1 [Compound 93] | 1.1 µM | 1.2 µM | 0.337 µM |  | 
17 | Nc1ccnc(-c2nc(N3CCOCC3)c3cnn(C4CCN(C(=O)c5cccnc5)CC4)c3n2)c1 [Compound 678, 2-{4-morpholin-4-yl-1-[1-(pyridin-3-ylcarbonyl)piperidin-4-yl]-1H-pyrazolo[3,4-d]pyrimidin-6-yl}pyridin-4-amine] |  |  | 6.66 µM | 39 µM | > 60 µM
18 | C=CC(=O)N1CCC(n2ncc3c(N4CCOCC4)nc(-c4ccc(NC(=O)OC)cc4)nc32)CC1 [Compound 458, methyl {4-[1-(1-acryloylpiperidin-4-yl)-4-morpholin-4-yl-1H-pyrazolo[3,4-d]pyrimidin-6-yl]phenyl}carbamate] | 0.93 µM | 1.2 µM | 1.98 µM |  | 
19 | CNC(=O)Nc1ccc(-c2nc(N3CCOCC3)c3cnn(C4CCN(Cc5ccc(C)cc5)CC4)c3n2)cc1 [Compound 675, 1-methyl-3-(4-{1-[1-(4-methylbenzyl)piperidin-4-yl]-4-morpholin-4-yl-1H-pyrazolo[3,4-d]pyrimidin-6-yl}phenyl)urea] |  |  | 0.025 µM | < 0.027 µM | 0.11 µM
20 | O=C(NCCF)Nc1ccc(-c2nc(N3CCOCC3)c3cnn(C4CCN(C(=O)c5cccnc5)CC4)c3n2)cc1 [Compound 548, 1-(2-fluoroethyl)-3-(4-{4-morpholin-4-yl-1-[1-(pyridin-3-ylcarbonyl)piperidin-4-yl]-1H-pyrazolo[3,4-d]pyrimidin-6-yl}phenyl)urea] | 0.63 µM | 0.52 µM | 0.541 µM |  | 
21 | COC(=O)N1CCC(n2ncc3c(N4CCOC(C)C4)nc(-c4ccc(NC(=O)Nc5ccccc5)cc4)nc32)CC1 (stereo not drawn) [Compound 848, methyl 4-[6-{4-[(anilinocarbonyl)amino]phenyl}-4-(2-methylmorpholin-4-yl)-1H-pyrazolo[3,4-d]pyrimidin-1-yl]piperidine-1-carboxylate] | 0.062 µM | 0.72 µM | 0.06 µM |  | 
